Assay results as given in patent US4771041A, “Method for combating virus infection” (priority 1976, dated 1988).

What was measured:
[1] = test system: reverse transcriptase from RMuLV; assay: Cell-free reverse transcriptase inhibition, RMuLV; assay type: biochemical, Rauscher murine leukemia virus; details: template/primer (rA)n.(dT)10
Description: (§1) Reverse transcriptase from various retroviruses have been tested in cell-free assays for inhibition by phosphonoformic acid and phosphonoacetic acid. The assay conditions have been described by Collaborative Research, Inc, 1365 Main Street, Waltham, Mass., USA "Assay kit for mammalian viral reverse transcriptase". BLV and VV were prepared in this laboratory and all other viruses and viral enzyme were obtained from Dr. K Nilsson, Department of Pathology, University of Uppsala and from Boehringer Mannheim, Germany. Phosphonoformic acid (PFA) and phosphonoacetic acid (PAA) were added at pH 7.2 to the reaction mixtures at the start of the reaction.
(§2) Rauscher murine leukemia virus; RMuLV, visna virus; VV, avian myeloblastosis virus; AMV, bovine leukemia virus; BLV, baboon endogenous virus; BaEV, simian sarcoma virus; SSV.

[2] = molecular target: T1, reverse transcriptase from VV (Maedi visna virus, UniProt P03370); assay: Cell-free reverse transcriptase inhibition, VV; assay type: biochemical; details: template/primer (rA)n.(dT)10, read-out: Percent inhibition
T1 construct: Reverse transcriptase from various retroviruses have been tested in cell-free assays; made in house
T1 sequence (P03370 541-1111): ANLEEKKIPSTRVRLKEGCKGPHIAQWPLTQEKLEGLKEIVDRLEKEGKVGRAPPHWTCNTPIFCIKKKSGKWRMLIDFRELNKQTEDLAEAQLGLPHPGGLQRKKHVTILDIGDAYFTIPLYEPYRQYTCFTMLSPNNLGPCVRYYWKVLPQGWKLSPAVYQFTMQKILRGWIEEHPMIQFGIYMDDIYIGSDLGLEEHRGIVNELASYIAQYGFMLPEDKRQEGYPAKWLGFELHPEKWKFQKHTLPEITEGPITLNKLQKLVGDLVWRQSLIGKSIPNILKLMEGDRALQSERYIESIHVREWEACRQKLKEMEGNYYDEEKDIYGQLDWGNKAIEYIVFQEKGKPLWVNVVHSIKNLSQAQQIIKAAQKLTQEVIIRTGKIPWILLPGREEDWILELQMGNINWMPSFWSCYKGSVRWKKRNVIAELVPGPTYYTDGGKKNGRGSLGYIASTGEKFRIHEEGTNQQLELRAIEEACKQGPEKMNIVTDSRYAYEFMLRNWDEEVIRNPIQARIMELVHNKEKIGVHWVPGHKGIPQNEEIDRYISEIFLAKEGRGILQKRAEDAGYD
Description: as §1, §2

[3] = molecular target: T2, reverse transcriptase from BLV (Bovine leukemia virus, UniProt P03361); assay: Cell-free reverse transcriptase inhibition, BLV; assay type: biochemical; details: template/primer (rA)n.(dT)10, read-out: Percent inhibition
T2 construct: Reverse transcriptase from various retroviruses have been tested in cell-free assays; made in house
T2 sequence (P03361 546-1120): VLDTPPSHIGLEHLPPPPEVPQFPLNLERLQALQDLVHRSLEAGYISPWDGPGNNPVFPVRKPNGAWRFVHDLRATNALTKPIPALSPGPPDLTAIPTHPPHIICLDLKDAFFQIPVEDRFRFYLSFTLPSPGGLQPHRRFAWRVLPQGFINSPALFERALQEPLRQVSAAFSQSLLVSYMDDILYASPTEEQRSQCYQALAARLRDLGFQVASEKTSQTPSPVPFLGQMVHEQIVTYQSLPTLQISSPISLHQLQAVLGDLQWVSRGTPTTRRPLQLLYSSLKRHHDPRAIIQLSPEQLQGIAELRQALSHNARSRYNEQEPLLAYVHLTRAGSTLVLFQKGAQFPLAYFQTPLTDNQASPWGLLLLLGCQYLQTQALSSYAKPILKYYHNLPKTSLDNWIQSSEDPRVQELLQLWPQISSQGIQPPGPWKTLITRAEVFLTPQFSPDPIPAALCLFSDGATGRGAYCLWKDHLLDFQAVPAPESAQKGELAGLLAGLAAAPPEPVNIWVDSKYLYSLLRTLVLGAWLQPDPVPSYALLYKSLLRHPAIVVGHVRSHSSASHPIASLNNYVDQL
Description: as §1, §2

[4] = molecular target: T3, reverse transcriptase from BaEV (Baboon endogenous virus, UniProt P10272); assay: Cell-free reverse transcriptase inhibition, BaEV; assay type: biochemical; details: template/primer (rA)n.(dT)10, read-out: Percent inhibition
T3 construct: Reverse transcriptase from various retroviruses have been tested in cell-free assays
T3 sequence (P10272 659-1335): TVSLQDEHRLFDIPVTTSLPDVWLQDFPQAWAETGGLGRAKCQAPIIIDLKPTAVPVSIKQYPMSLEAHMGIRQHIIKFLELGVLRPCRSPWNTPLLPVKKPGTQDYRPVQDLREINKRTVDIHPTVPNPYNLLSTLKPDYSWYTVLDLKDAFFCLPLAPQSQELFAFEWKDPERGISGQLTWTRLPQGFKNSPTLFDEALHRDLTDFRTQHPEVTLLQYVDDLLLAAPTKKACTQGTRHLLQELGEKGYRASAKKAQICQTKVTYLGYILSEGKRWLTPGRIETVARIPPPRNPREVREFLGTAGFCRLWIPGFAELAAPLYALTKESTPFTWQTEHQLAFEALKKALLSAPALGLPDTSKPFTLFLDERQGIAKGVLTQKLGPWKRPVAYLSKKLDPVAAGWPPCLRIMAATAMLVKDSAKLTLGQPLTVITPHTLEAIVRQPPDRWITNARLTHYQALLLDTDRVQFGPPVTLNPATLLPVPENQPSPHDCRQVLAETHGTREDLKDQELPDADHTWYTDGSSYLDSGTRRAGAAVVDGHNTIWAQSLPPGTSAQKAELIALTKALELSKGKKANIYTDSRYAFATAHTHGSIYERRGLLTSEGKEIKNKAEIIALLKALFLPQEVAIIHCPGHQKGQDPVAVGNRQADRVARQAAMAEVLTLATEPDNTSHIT
Description: as §1, §2

[5] = molecular target: T4, reverse transcriptase from SSV (Woolly monkey sarcoma virus, UniProt P03359); assay: Cell-free reverse transcriptase inhibition, SSV; assay type: biochemical, simian sarcoma virus; details: template/primer (rA)n.(dT)10, read-out: Percent inhibition
T4 construct: Reverse transcriptase from various retroviruses have been tested in cell-free assays
T4 sequence (P03359 642-1310): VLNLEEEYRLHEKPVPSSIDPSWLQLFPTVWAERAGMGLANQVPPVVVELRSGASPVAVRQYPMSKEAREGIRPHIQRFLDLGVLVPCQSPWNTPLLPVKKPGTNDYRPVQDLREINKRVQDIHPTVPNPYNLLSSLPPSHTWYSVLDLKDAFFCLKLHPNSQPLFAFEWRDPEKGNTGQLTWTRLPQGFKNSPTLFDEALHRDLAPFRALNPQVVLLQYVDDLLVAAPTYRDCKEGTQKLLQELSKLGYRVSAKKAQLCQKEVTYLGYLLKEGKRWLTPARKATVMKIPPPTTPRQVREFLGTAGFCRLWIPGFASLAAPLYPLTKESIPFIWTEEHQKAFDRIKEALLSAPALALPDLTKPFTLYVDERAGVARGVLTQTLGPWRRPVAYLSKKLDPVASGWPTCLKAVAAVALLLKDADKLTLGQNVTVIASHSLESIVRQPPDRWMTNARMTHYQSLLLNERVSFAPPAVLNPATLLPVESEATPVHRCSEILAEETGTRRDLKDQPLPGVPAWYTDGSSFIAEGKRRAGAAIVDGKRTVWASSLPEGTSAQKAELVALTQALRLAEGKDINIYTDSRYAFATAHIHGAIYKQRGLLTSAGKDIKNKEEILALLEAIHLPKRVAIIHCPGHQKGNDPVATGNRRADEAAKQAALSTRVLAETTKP
Description: as §1, §2

[6] = test system: reverse transcriptase from AMV; assay: Cell-free reverse transcriptase inhibition, AMV; assay type: biochemical, avian myeloblastosis virus
Description: as §1, §2

visna virus = assay: Visna virus growth in sheep choroid plexus (SCP) cells: virus titre and morphological changes; assay type: cell-based; details: 500 μM
Description: Visna virus is a retrovirus that can multiply in sheep choroid (SCP) cells. The infection can be followed by titrating medium from infected cells to determine the formation of virus particles and by observing morphological changes as syncytial formation and cell degeneration.
Plates (5 cm) with primary SCP cells in medium 199 with 10% sheep serum were grown to confluence and then infected with 1×10^6 TCID50 (tissue culture infectious doses) of visna virus. One set of plates were left untreated, one set received different concentrations of phosphonoformic acid (PFA) at pH 7.2. Another set received phosphonoacetic acid (PAA) at pH 7.2. Uninfected plates were used as controls with and without PFA and PAA. The virus titre was determined 5 days after infection by the end-point titration method. The plates were checked daily in a light microscope to observe morphological changes.

[7] = guinea pig, in vivo
Description: Phosphonoformic acid and phosphonoacetic acid were used as their trisodium and disodium salts, respectively. The test substances were used in 1% solutions.
Guinea-pigs of the Dunkin-Hartley strain of both sexes and weighing 200-300 g were used. The back of the animal was shaved and depilated with Opilca® on the day before starting the application of the solutions. The back was divided into six squares in the middle of which 30 μl of the test solutions was applied. In a given group of animals the different solutions were applied in a randomized order alternating between sites. However, the same site was used for repeated application of a given solution.
The irritation was scored on scales of 0 to 3, each grade corresponding to the following specific criteria of irritation:
1=slight erythema or edema or no hair growth
2=moderate erythema or edema or skin discoloration
3=marked erythema or edema or necrosis including crust formation.
The scoring was carried out blindly using coded solutions.
The scores of all the applications for a given solution and time were added and the average score was calculated.
The solvent used was a mixture of glycerol 10.0% (w/v), Tween 80 0.1% and aq sterile ad 100. All solutions were adjusted to pH 6.5 with hydrochloric acid or aqueous sodium hydroxide as required. Thirty μl of 1.0% solutions of phosphonoformic acid and phosphonoacetic acid respectively was applied twice daily during three days to each of six guinea pigs.

[8] = set-up: species or system Cynomolgus monkeys; details: cynomolgus monkey, in vivo
Description: Phosphonoformic acid, also denoted PFA and phosphonoacetic acid, also denoted PAA were used in the form of their trisodium and disodium salt, respectively. The following equimolar compositions of the two test compounds were used: […]
Two adult male Cynomolgus monkeys were treated once daily for 7 days with PFA or PAA in Arlatone cream. Treatment was done both by topical application of 0.2 ml cream on an area of 3×7 cm on the upper part of the arms and by application of 0.2 ml of cream on the penis and the adjacent skin. During application of cream, the animals were lightly anaesthetized with Ketalar®, given intramuscularly. All applications were 0.2 ml each on day 6/3, 7/3, 8/3, 9/3, 10/3, 11/3 and 12/3 1978.

In the case of `O=C(O)CP(=O)(O)O` [phosphonoacetic acid, reference compound], the Percent inhibition ([1]; 10 μM) is reported as 0%, the Percent inhibition ([1]; 100 μM) is reported as 10% and the Percent inhibition ([1]; 500 μM) is reported as 35%. The inhibition at 100 µM ([2]; 100 μM) was 25%, the inhibition at 500 µM ([2]; 500 μM) was 3% and the inhibition at 100 µM ([3]; 100 μM) was 0%. The inhibition at 500 µM ([3]; 500 μM) was 10%, the inhibition at 10 µM ([4]; 10 μM) was 5% and the inhibition at 100 µM ([4]; 100 μM) was 58%. For the same molecule, the inhibition at 500 µM ([4]; 500 μM) was 71%, the inhibition at 10 µM ([5]; 10 μM) was 0% and the inhibition at 100 µM ([5]; 100 μM) was 44%. The inhibition at 500 µM ([5]; 500 μM) was 58%, the Percent inhibition ([6]; 10 μM, endogenous template) was 0% and the Percent inhibition ([6]; 10 μM, purified enzyme, (rA)n.(dT)10) was 0%. The Percent inhibition ([6]; 10 μM, template/primer (rA)n.(dT)10) was 0%, the Percent inhibition ([6]; 100 μM, endogenous template) was -2% and the Percent inhibition ([6]; 100 μM, purified enzyme, (rA)n.(dT)10) was 0%. The Percent inhibition ([6]; 100 μM, template/primer (rA)n.(dT)10) was -34%, the Percent inhibition ([6]; 500 μM, endogenous template) was -3% and the Percent inhibition ([6]; 500 μM, purified enzyme, (rA)n.(dT)10) was 19%. The Percent inhibition ([6]; 500 μM, template/primer (rA)n.(dT)10) was -86%, the “effect on virus multiplication” value (visna virus; SCP cells) was “does not prevent virus multiplication” and the “Morphological changes Day 3” value (visna virus; Visna virus infected cells) was “+ (10% cell degeneration)”. For the same molecule, the “Morphological changes Day 5” value (visna virus; Visna virus infected cells) was “++ (25% cell degeneration)”, the “Morphological changes Day 7” value (visna virus; Visna virus infected cells) was “++++ (100% cell degeneration)” and the “skin condition after two weeks” value [7] was “the skin heals after about two weeks but remains hairless”. For the same molecule, the skin irritation score ([7]; pH 6.5) was 2-3 score and the “Result (skin irritation), area of application penis” value [8] was “Glans penis and adjacent skin areas irritated 9/3-12/3 Adjacent skin areas also showed symptoms 23/3”.
